From paper PMC5972032, “Evolution of substrate specificity in the Nucleobase-Ascorbate Transporter (NAT) protein family” (Microbial Cell, 2018)
pKi: −log10 of the molar value.

Biological target: T1, UapA (Aspergillus nidulans, UniProt Q07307)
T1 construct: full-length, C-terminal GFP tag (plasmid pAN510-GFP), expressed in A. nidulans uapAΔ uapCΔ azgAΔ pabaA1 argB2; homodimer
Test: inhibition of [3H]-xanthine uptake in germinating conidiospores
Format: cell-based
Description: inhibition of [3H]-xanthine uptake in germinating conidiospores on UapA | wild-type UapA can indeed bind L-ascorbate with very low affinity, reflected in a Ki

T1 sequence (Q07307 whole entry): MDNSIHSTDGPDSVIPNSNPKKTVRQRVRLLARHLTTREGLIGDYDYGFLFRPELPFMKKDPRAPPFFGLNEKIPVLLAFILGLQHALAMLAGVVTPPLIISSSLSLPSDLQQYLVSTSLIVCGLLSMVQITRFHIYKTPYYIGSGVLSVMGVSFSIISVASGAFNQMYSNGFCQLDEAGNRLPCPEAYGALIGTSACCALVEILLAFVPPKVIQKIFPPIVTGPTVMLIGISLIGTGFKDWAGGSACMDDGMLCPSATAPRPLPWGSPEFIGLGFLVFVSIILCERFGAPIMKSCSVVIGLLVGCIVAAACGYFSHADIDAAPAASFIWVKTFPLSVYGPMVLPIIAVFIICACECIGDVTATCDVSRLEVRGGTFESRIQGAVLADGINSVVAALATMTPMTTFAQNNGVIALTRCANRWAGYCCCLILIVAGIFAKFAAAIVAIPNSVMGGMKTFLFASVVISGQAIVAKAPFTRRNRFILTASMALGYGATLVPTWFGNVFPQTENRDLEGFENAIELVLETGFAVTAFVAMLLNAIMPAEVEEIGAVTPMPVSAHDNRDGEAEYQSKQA

O=C1O[C@H]([C@@H](O)CO)C(O)=C1O [L-ascorbate]
pKi: ~1.77
